Experimental data from patent publication US20150283287A1, “METHODS AND COMPOSITIONS FOR WOUND HEALING” (IMBED BIOSCIENCES, INC., priority 2012, published 2015).

Legend:
[1] = system: P. aeruginosa (ATCC 27853) biofilms; experiment: Inhibition of biofilm formation (crystal violet staining); assay type: cell-based, Pseudomonas aeruginosa
Protocol: During the development of embodiments of the technology provided herein, experiments were conducted to determine the minimum concentration of Ga (e.g., as Ga(NO3)3) to inhibit biofilm formation. In particular, Ga was added to cultures of Pseudomonas aeruginosa in biofilm growth media (500 μL of 1% tryptic soy broth (TSB)) to test the inhibition of biofilm formation at the bottom of 48-well tissue culture plates.
Biofilm growth arising from suspensions of 10^6 CFU/ml P. aeruginosa (ATCC 27853) was quantified after 24, 48, and 72 hours by staining biofilms with crystal violet, following methods described previously (Brandenburg et al. Tryptophan Inhibits Biofilm Formation by Pseudomonas aeruginosa. Antimicrobial Agents and Chemotherapy. 2013; 57:1921-5).

[2] = system: established biofilms; settings: in TSB; cited from earlier work
[3] = system: mammalian cells; settings: cited from earlier work
[4] = system: incisional wounds; settings: in vivo; cited from earlier work

Row | SMILES | Effect on free (planktonic) bacterial counts ([1]; 25 μM) | Concentration in solution sufficient to completely inhibit biofilm formation ([1]; 72 hours, 10^6 CFU/ml in 1% TSB) [µM] | Concentration that disperses established biofilms [2] [µM] | Concentrations not cytotoxic to mammalian cells [3] | Fibroblastic proliferation [4] | Production of collagen [4]
1 | O=[N+]([O-])[O-].O=[N+]([O-])[O-].O=[N+]([O-])[O-].[Ga+3] [Ga^3+, Ga(NO3)3] | not bactericidal | 25 | 100 | up to 1 mM | – | –
2 | CC1=C(/C=C/C(C)=C/C=C/C(C)=C/C(=O)O)C(C)(C)CCC1 [tretinoin] | – | – | – | – | increased | diminished
